Species on record: Rattus norvegicus
Experiment: Open TG-GATES - Regimen: Single
Format: toxicity, organism-based, Sprague-Dawley
Design: regimen Single, gender Male, age 6 weeks
Settings: in vivo, po, 40 mg/kg, route gavage, dose level Low; for APTT / Bas / Eos / Fbg / Hb / Ht / Lym / MCH / MCHC / MCV / Mono / Neu / PT / Plat / RBC / Ret / WBC: tissue Blood; for KIDNEY_L / KIDNEY_R / KIDNEY_TOTAL: tissue Kidney; for LIVER: tissue Liver; for A/G / ALP / ALT / AST / BUN / CRE / Ca / Cl / DBIL / GLC / IP / K / LDH / Na / PL / RALB / TBIL / TC / TG / TP / gamma-GTP: tissue Plasma

## Cc1cccc(C)c1OCC(C)N (configuration not stated) [MEXILETINE]
3 h
  TERMINAL_BW: 218.4 g
  APTT: 20.9 s
  Bas: 0%
  Eos: 0.4%
  Fbg: 302.8 mg/dL
  Hb: 13.1 g/dL
  Ht: 40.8%
  Lym: 80.4%
  MCH: 20.6 pg
  MCHC: 32.1%
  MCV: 64.2 fL
  Mono: 2.2%
  Neu: 16%
  PT: 15.9 s
  Plat: 119 x10_4/uL
  RBC: 634.2 x10_4/ul
  Ret: 7.8%
  WBC: 92.2 x10_2/uL
  KIDNEY_L: 1 g
  KIDNEY_R: 1 g
  KIDNEY_TOTAL: 1.9 g
  LIVER: 10.2 g
  A/G: 1.2
  ALP: 1641.6 IU/L
  ALT: 51 IU/L
  AST: 79.6 IU/L
  BUN: 13.6 mg/dL
  CRE: 0.2 mg/dL
  Ca: 10.7 mg/dL
  Cl: 105.6 meq/L
  DBIL: 0 mg/dL
  GLC: 188.8 mg/dL
  IP: 8.8 mg/dL
  K: 4 meq/L
  LDH: 207.4 IU/L
  Na: 142.4 meq/L
  PL: 149.2 mg/dL
  RALB: 3 g/dL
  TBIL: 0.01 mg/dL
  TC: 84.4 mg/dL
  TG: 67.6 mg/dL
  TP: 5.5 g/dL
  gamma-GTP: 1.2 IU/L
6 h
  TERMINAL_BW: 214 g
  APTT: 23.3 s
  Bas: 0%
  Eos: 0.8%
  Fbg: 314 mg/dL
  Hb: 13.5 g/dL
  Ht: 40.8%
  Lym: 83.6%
  MCH: 20.9 pg
  MCHC: 33.2%
  MCV: 63 fL
  Mono: 2.6%
  Neu: 11.4%
  PT: 16 s
  Plat: 118.1 x10_4/uL
  RBC: 647.4 x10_4/ul
  Ret: 7.2%
  WBC: 88.1 x10_2/uL
  KIDNEY_L: 0.9 g
  KIDNEY_R: 0.9 g
  KIDNEY_TOTAL: 1.8 g
  LIVER: 9.2 g
  A/G: 1.2
  ALP: 1364.6 IU/L
  ALT: 43 IU/L
  AST: 72.8 IU/L
  BUN: 10.4 mg/dL
  CRE: 0.2 mg/dL
  Ca: 10.6 mg/dL
  Cl: 105.6 meq/L
  DBIL: 0 mg/dL
  GLC: 180.8 mg/dL
  IP: 8.5 mg/dL
  K: 4.2 meq/L
  LDH: 153.4 IU/L
  Na: 141 meq/L
  PL: 128.8 mg/dL
  RALB: 3 g/dL
  TBIL: 0.022 mg/dL
  TC: 69 mg/dL
  TG: 68 mg/dL
  TP: 5.5 g/dL
  gamma-GTP: 1.4 IU/L
9 h
  TERMINAL_BW: 217.2 g
  APTT: 22.4 s
  Bas: 0%
  Eos: 0.6%
  Fbg: 293.8 mg/dL
  Hb: 12.7 g/dL
  Ht: 39.7%
  Lym: 73.6%
  MCH: 20.3 pg
  MCHC: 32%
  MCV: 63.6 fL
  Mono: 2.6%
  Neu: 22%
  PT: 16.2 s
  Plat: 106.8 x10_4/uL
  RBC: 624.6 x10_4/ul
  Ret: 8.1%
  WBC: 122.3 x10_2/uL
  KIDNEY_L: 0.9 g
  KIDNEY_R: 0.9 g
  KIDNEY_TOTAL: 1.9 g
  LIVER: 9.3 g
  A/G: 1.2
  ALP: 1650.8 IU/L
  ALT: 40.2 IU/L
  AST: 65.2 IU/L
  BUN: 11.6 mg/dL
  CRE: 0.2 mg/dL
  Ca: 10.4 mg/dL
  Cl: 106.2 meq/L
  DBIL: 0.002 mg/dL
  GLC: 192.2 mg/dL
  IP: 9.6 mg/dL
  K: 4.2 meq/L
  LDH: 127.2 IU/L
  Na: 140.6 meq/L
  PL: 129.6 mg/dL
  RALB: 3 g/dL
  TBIL: 0.022 mg/dL
  TC: 71.4 mg/dL
  TG: 77 mg/dL
  TP: 5.5 g/dL
  gamma-GTP: 1.2 IU/L
24 h
  TERMINAL_BW: 232.2 g
  APTT: 20.7 s
  Bas: 0%
  Eos: 1.4%
  Fbg: 297.2 mg/dL
  Hb: 12.3 g/dL
  Ht: 38.5%
  Lym: 80.2%
  MCH: 19.9 pg
  MCHC: 31.9%
  MCV: 62.6 fL
  Mono: 2.6%
  Neu: 16%
  PT: 16.5 s
  Plat: 114.4 x10_4/uL
  RBC: 616.2 x10_4/ul
  Ret: 7.5%
  WBC: 87.8 x10_2/uL
  KIDNEY_L: 1 g
  KIDNEY_R: 1 g
  KIDNEY_TOTAL: 2 g
  LIVER: 10.5 g
  A/G: 1.2
  ALP: 1448.8 IU/L
  ALT: 44.6 IU/L
  AST: 73.4 IU/L
  BUN: 15.8 mg/dL
  CRE: 0.2 mg/dL
  Ca: 10.8 mg/dL
  Cl: 105.6 meq/L
  DBIL: 0 mg/dL
  GLC: 184.2 mg/dL
  IP: 7.6 mg/dL
  K: 4.1 meq/L
  LDH: 158.6 IU/L
  Na: 141.8 meq/L
  PL: 140 mg/dL
  RALB: 3.1 g/dL
  TBIL: 0.01 mg/dL
  TC: 79 mg/dL
  TG: 89.8 mg/dL
  TP: 5.5 g/dL
  gamma-GTP: 1.6 IU/L

From ChEMBL document CHEMBL3885861, “Open TG-GATES”
